The assay has as its target T1, Human-Pankreas-α-Amylase (HPA) (Homo sapiens, UniProt P04746).
T1 sequence (P04746 16-511): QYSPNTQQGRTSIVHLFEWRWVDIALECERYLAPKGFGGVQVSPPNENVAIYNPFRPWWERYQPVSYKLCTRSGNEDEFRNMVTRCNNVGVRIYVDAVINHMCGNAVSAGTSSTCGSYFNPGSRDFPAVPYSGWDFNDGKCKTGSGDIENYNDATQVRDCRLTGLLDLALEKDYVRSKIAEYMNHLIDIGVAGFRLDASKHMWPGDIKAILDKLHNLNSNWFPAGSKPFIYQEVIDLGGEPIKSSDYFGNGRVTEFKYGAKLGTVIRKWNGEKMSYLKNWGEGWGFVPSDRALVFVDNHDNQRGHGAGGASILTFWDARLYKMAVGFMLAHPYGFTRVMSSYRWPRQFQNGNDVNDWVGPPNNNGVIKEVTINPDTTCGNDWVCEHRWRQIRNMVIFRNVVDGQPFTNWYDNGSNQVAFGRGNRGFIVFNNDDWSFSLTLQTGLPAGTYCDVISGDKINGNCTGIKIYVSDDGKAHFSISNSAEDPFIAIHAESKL
Briefly: direct α-amylase determination with synthetic substrates, without auxiliary enzymes (absorbance change per minute). Type of assay: biochemical. The following applies: for 400 mMol/l KSCN HPA [ΔE/min]: activator 400 mMol/l KSCN, read at the wavelength given per substrate (645 or 578 nm); for 400 mmol/l KSCN HPA relativer Wert [ΔE/min]: relative value (Beispiel 1 = 1). An excerpt:
Es wurde mit den in der folgenden Tabelle und in Fig. 1 aufgeführten Substraten, die Amylaseaktivität von Human-Pankreas-α-Amylase (HPA) und Human-Speichel-α-Amylase (HSA) untersucht. Die folgenden Reagenzien wurden verwendet:
Substrat (wie in der Tabelle angegeben) 49,3 mMol/l
Reagenz 1 enthält gegebenenfalls noch Aktivator, wie in Tabelle angegeben, sowie - als Hemmstoffe für die Speichel-α-Amylase- von den Zellinien NCACC 84122003 (MAK I) und NCACC 84111301 (MAK II) produzierte Antikörper. Zur Durchführung der Bestimmung wird 1,00 ml Reagenz 1 mit 0,02 ml der Probe gemischt und auf 37°C temperiert. Anschließend wird 0,10 ml Reagenz 2 zugegeben, gemischt und nach 1,2 und 3 Minuten die Extinktion bei der jeweiligen Meßwellenlänge (s. Tabelle) abgelesen. Es wird der Mittelwert der Extinktionsdifferenz/Minute gebildet.
Die Endkonzentrationen im Testansatz betragen:
Als Probe wird Humanpankreas-Amylase (HPA) verwendet. Die Messung erfolgt bei 37°C bei der jeweils angegebenen Meßwellenlänge. Die Ergebnisse sind der Tabelle zu entnehmen. Tabelle
Verwendung der gemäß Beispiel 4 und Beispiel 5 hergestellten Substanzen als Substrate zur direkten α-Amylase-Bestimmung.
Es wird analog zu Beispiel 2 vorgegangen.

[1] abbreviates: MES buffer pH 6,0, 37°C, substrate 4,44 mmol/l.
[2] abbreviates: measured at pH 8,0, 595 or 573 nm.

SMILES strings stand for the structures. Marks after values point to notes of the source that are not given here.

Take `O=C1C(Cl)=CC(=Nc2ccc(O[C@H]3O[C@H](CO)[C@@H](O[C@H]4O[C@H](CO)[C@@H](O[C@H]5O[C@H](CO)[C@@H](O)[C@H](O)[C@H]5O)[C@H](O)[C@H]4O)[C@H](O)[C@H]3O)cc2)C=C1Cl` [2,6-Dichlor-indophenylα-maltotriosid, reference compound]: the “400 mMol/l KSCN HPA [ΔE/min]” value under setting [1] is given as 0 ΔE/min.

In the case of `CC1=CC(=Nc2ccc(O[C@H]3O[C@H](CO)[C@@H](O[C@H]4O[C@H](CO)[C@@H](O[C@H]5O[C@H](CO)[C@@H](O)[C@H](O)[C@H]5O)[C@H](O)[C@H]4O)[C@H](O)[C@H]3O)cc2)C=C(C)C1=O` [2,6-Dimethyl-indophenylα-maltotriosid, reference compound], the “HPA [ΔE/min]” value (with 150 mmol/l NaN₃ instead of KSCN, MES buffer pH 6,0, 37°C, substrate 4,44 mmol/l, 578 nm) is 0* ΔE/min.

As for `O=C1C(Cl)=CC(=Nc2ccc(O[C@H]3O[C@H](CO)[C@@H](O[C@H]4O[C@H](CO)[C@@H](O[C@H]5O[C@H](CO)[C@@H](O)[C@H](O)[C@H]5O)[C@H](O)[C@H]4O)[C@H](O)[C@H]3O)c(Cl)c2)C=C1Cl` [Beispiel 1, 2',2,6-Trichlor-indophenyl-α-maltotriosid], the “400 mMol/l KSCN HPA [ΔE/min]” value under setting [1] is 0,063 ΔE/min. The “Spaltung durch α-Amylase als direktes Substrat” value (in words, in the absence of auxiliary enzymes) is “hervorragend durch α-Amylase in Abwesenheit von Hilfsenzymen spaltbar”. In addition, where the note is “analogous to Beispiel 2 (pH 6,0, 37°C), 645 nm”, the “400 mmol/l KSCN HPA relativer Wert [ΔE/min]” value is given as 1 ΔE/min.

Take `CC1=CC(=Nc2ccc(O[C@H]3O[C@H](CO)[C@@H](O[C@H]4O[C@H](CO)[C@@H](O[C@H]5O[C@H](CO)[C@@H](O)[C@H](O)[C@H]5O)[C@H](O)[C@H]4O)[C@H](O)[C@H]3O)c(Cl)c2)C=CC1=O` [Beispiel 4, 2'-Chlor-2-methyl-indophenyl-α-maltotriosid]: under setting [2], the “400 mmol/l KSCN HPA relativer Wert [ΔE/min]” value is reported as 0,35* ΔE/min.

For `CC1=CC(=Nc2ccc(O[C@H]3O[C@H](CO)[C@@H](O[C@H]4O[C@H](CO)[C@@H](O[C@H]5O[C@H](CO)[C@@H](O)[C@H](O)[C@H]5O)[C@H](O)[C@H]4O)[C@H](O)[C@H]3O)c(Cl)c2)C=C(C)C1=O` [Beispiel 5, 2'-Chlor-2,6-dimethyl-indophenyl-α-maltotriosid], under setting [2], the “400 mmol/l KSCN HPA relativer Wert [ΔE/min]” value is given as 0,27* ΔE/min.

Values taken from patent publication EP0510620A1, “Indophenol substituted oligomaltosides as substrates for alpha-amylase” (BOEHRINGER MANNHEIM GMBH, priority 1991, dated 1992).
